The values that follow come from PubChem BioAssay (NCI).

Common to all, as to assay: inhibition of tumour cell growth, NCI panel, 48 h
Test [1] deals with DU-145 prostate.
Test [2] concerns CAKI-1 renal.
Test [3] concerns MDA-MB-231 breast.
Test [4] has as its system SK-MEL-28 melanoma.
Test [5] deals with OVCAR-3 ovarian.
Test [6] concerns NCI-H460 lung.
Test [7] has as its system NCI-H226 lung.
For test [8], the system named is HCT-116 colon.
For test [9], the system named is HCC-2998 colon.
For test [10], the system named is NCI/ADR-RES ovarian.

The structures appear in SMILES notation. “And” between values parts separate entries of the source, which are not always exact repeats. Equal values may be shown once.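 These data come from cells grown in 96-well plates and exposed to compound for 48 hours at five concentrations. At the GI50, growth is halved. The concentration for full growth arrest is given as TGI.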 Bounds are passed on as bounds.

Turning to `CC1(/C=C/c2ccc(-c3ccccc3)cc2)CCn2cnc3ncnc(c32)N1O` (centres undefined), the GI50 in test [1] was 0.53 µM; in test [2] it was 0.327 µM; in test [3], 0.509 µM; in test [4] it was 0.656 µM; in test [5], 0.425 µM; in test [6], 0.264 µM. Moreover, the GI50 was 0.571 µM in [7], 0.358 µM in test [8], 0.409 µM in [9] and 0.348 µM in test [10]. Moreover, the TGI is above 56.7 µM in test [1]; 12.2 µM in test [2]; 63.2 µM in test [3]; 20 µM in test [4]; 20.7 µM in [5]; 8.25 µM in [6]. Besides, the TGI in test [7] was determined as 20.2 µM; in test [8], 18.6 µM; in [9], 34.6 µM; in test [10], 28.7 µM.
In the case of `CNC(=O)c1cc(Oc2ccc(NC(=O)Nc3ccc(Cl)c(C(F)(F)F)c3)cc2)ccn1`, the GI50 in test [1] is 4.55 µM and 3.04 µM and 3.11 µM; in [2] it was 3.21 µM and 2.01 µM and 2.91 µM; in test [3], 1.74 µM and 1.62 µM and 1.33 µM; in [4], 2.42 µM and 2.59 µM and 2.63 µM; in [6], 3.17 µM and 2.88 µM and 2.44 µM; in [7], 1.14 µM and 2.29 µM and 2 µM. Besides, the GI50 is 1.74 µM and 1.5 µM and 1.9 µM in [8]; 3.4 µM and 1.58 µM and 2.81 µM in test [9]; 3.06 µM and 2.63 µM and 2.65 µM in [10]. Moreover, the TGI in test [1] is > 10 µM and 9.33 µM and 10.7 µM; in [2], > 10 µM and 4.3 µM and 8.81 µM; in test [3], 4.4 µM and 4.42 µM and 4.14 µM; in test [4] it was 8.45 µM and 7.23 µM and 7.5 µM; in [6] it was > 10 µM and 10.2 µM and 7.09 µM; in test [7], 9.38 µM and 7.14 µM and 7.27 µM. In addition, the TGI in test [8] is > 10 µM and 4.21 µM and 7.48 µM; in test [9], > 10 µM and 3.11 µM and 8.92 µM; in test [10], > 10 µM and 7.89 µM and 15.7 µM.
As to `S=C1NC(c2ccccc2)NC(c2ccccc2)S1` (centres undefined), the TGI in [1] is above 100 µM; in test [2], above 100 µM; in test [3] it was above 100 µM; in [4] it was above 100 µM; in test [5], above 100 µM; in [6], 63.3 µM. Further, the TGI in [7], in test [8] and in test [10] was above 100 µM each time.
Consider `Nc1[nH]c(=S)[nH]c(=O)c1N=Nc1c(Br)cc(S(N)(=O)=O)cc1Br`, for which the TGI in test [1], in test [2], in [3], in test [4], in test [5] and in test [6] was above 100 µM throughout. For the same molecule, the TGI in test [7], in [8] and in test [10] was above 100 µM each time.
In the case of `O=C(Nc1cccc(Cl)c1)Nc1cc(C(F)(F)F)ccc1Cl`, the GI50 in test [1] was 2.95 µM; in test [3], 1.97 µM; in [4], 4.19 µM; in test [5] it was 2.61 µM; in [6], 2.54 µM; in test [7], 3.25 µM. Moreover, the GI50 in test [8] is 2.54 µM; in test [9], 2.53 µM; in [10], 2.64 µM. Further, the TGI in test [1] turned out to be 10.2 µM; in [3] it was 4.23 µM; in [4], 29.6 µM; in test [5], 7.19 µM; in [6] it was 6.84 µM; in test [7], 10.5 µM. Also, the TGI is 7.48 µM in test [8], 5.88 µM in test [9] and 7.12 µM in test [10].
Turning to `C=C1[C@H](O)C[C@@H](C(C)C(O)CC=C(C)C)[C@@H](O)[C@@H]2C(C)=CC[C@@H]12` (some centres undefined), the GI50 in [1], in test [2], in [3], in [4], in test [6] and in test [7] was above 100 µM in each case. The GI50 in test [8] and in test [10] was above 100 µM in each case. The TGI in test [1], in test [2], in test [3], in test [4], in [6] and in [7] was above 100 µM each time. For the same molecule, the TGI in [8] and in test [10] was above 100 µM each time.
With `COc1cc(/C=C/[N+](=O)[O-])cc(OC)c1`, the GI50 is 1.97 µM in [1]; 2.72 µM in test [3]; 2.75 µM in [4]; 1.56 µM in test [5]; 3.51 µM in [6]; 17.3 µM in test [7]. The GI50 in test [8] was 1.84 µM; in [9] it was 1.98 µM; in [10], 3.02 µM. Also, the TGI in test [1] is 4.03 µM; in test [3], 8.48 µM; in test [4], 7.29 µM; in [5] it was 3.07 µM; in [6], 10.5 µM; in test [7], 46.1 µM. The TGI in test [8] turned out to be 3.64 µM; in test [9], 3.59 µM; in [10], 13.6 µM.
Consider `CC#CC#C/C=C1/C=CC2(CCCCO2)O1` (centres undefined), for which the TGI in test [1], in test [2], in test [3], in test [4], in [6] and in test [7] was above 100 µM in each case. The TGI in test [8], in test [9] and in test [10] was above 100 µM throughout.
On to `Clc1ccc(Nc2nnc(COc3ccccc3)c3ccccc23)cc1`, for which the GI50 is 2.65 µM in [1]; 1.28 µM in test [3]; 2.84 µM in [4]; 2.87 µM in test [5]; 2.7 µM in [6]; 1.56 µM in test [7]. In addition, the figures for the GI50 in [8], in test [9] and in test [10] were 1.07 µM, 3.81 µM and 2.62 µM, respectively. Also, the TGI came to 10.5 µM in test [1]; 6.9 µM in test [3]; 7.23 µM in test [4]; 9.8 µM in [5]; 7.12 µM in [6]; 6.58 µM in test [7]. In addition, the TGI in test [8] came to 4.83 µM; in [9] it was 8.36 µM; in [10], 16.6 µM.
As for `NC(=O)C1CCCN1Cc1ccc2c(c1)OCO2` (centres undefined), the TGI in [1], in [2], in test [3], in test [4], in test [5] and in test [6] was above 100 µM in each case. Moreover, the TGI in test [7], in test [8] and in test [10] was above 100 µM in each case.
